The values that follow come from US8012975B2, “Antitumoral analogs of ET-743” (Pharma Mar, S.A., priority 2000, dated 2011).

One may read the IC50 as the point on the concentration scale where inhibition reaches its midpoint.

Like-named read-outs stand apart in the source and are kept apart here.

In the case of `COc1c(C)cc2c(c1O)[C@@H]1C3Cc4c(OC(C)=O)c(C)c5c(c4[C@H](CNC(=O)[C@@H](C)NC(=O)CC(C)C)N3[C@@H](C#N)[C@H](C2)N1C)OCO5` (stereo partly shown), the IC50 in the data set with P-388, in the data set with A-549, with HT-29, in the data set with MEL-28 and in the data set with DU-145 was 100 pM in each case.

As to `COc1c(C)cc2c(c1O)[C@@H]1C3Cc4c(OC(C)=O)c(C)c5c(c4[C@H](CNC(=O)[C@H](C)NC(=O)C(F)(F)F)N3[C@@H](C#N)[C@H](C2)N1C)OCO5` (stereo partly shown), the IC50 in the data set on P-388, with A-549, with HT-29, in the data set on MEL-28 and in the data set on DU-145 was 100 pM in each case.

On to `C/C=C(\OC(C)=O)C1=C(C2=COCO2)[C@H](CNC(=O)/C=C/c2ccccc2)N2C(C1)[C@H]1c3c(cc(C)c(OC)c3O)C[C@@H]([C@@H]2C#N)N1C` (stereo partly shown), for which the IC50 with P-388, in the data set on A-549, in the data set on HT-29, in the data set with MEL-28 and with DU-145 was 100 pM throughout.

With `C/C=C(\OC(C)=O)C1=C(C2=COCO2)[C@H](CNC(=O)CCC)N2C(C1)[C@H]1c3c(cc(C)c(OC)c3O)C[C@@H]([C@@H]2C#N)N1C` (stereo partly shown), the IC50 with P-388, in the data set with A-549, with HT-29, in the data set on MEL-28 and with DU-145 was 100 pM throughout.

On to `COc1c(C)cc2c(c1O)[C@@H]1C3Cc4c(OC(C)=O)c(C)c5c(c4[C@H](CNC(=O)[C@H](C)NC(=O)C(F)(F)F)N3[C@@H](O)[C@H](C2)N1C)OCO5` (stereo partly shown) [drawing 110], for which the IC50 with P-388, in the data set with A-549, in the data set on HT-29, in the data set with MEL-28 and in the data set on DU-145 was 100 pM each time.

Consider `COc1c(C)cc2c(c1O)[C@@H]1C3Cc4c(OC(C)=O)c(C)c5c(c4[C@H](CNC(=O)/C=C/c4ccccc4)N3[C@@H](O)[C@H](C2)N1C)OCO5` (stereo partly shown) [drawing 113], for which the IC50 in the data set on P-388, with A-549, in the data set with HT-29, with MEL-28 and with DU-145 was 100 pM throughout.

In the case of `COc1c(C)cc2c(c1O)[C@@H]1C3Cc4c(OC(C)=O)c(C)c5c(c4[C@H](CNC(=O)CCc4ccccc4)N3[C@@H](O)[C@H](C2)N1C)OCO5` (stereo partly shown) [drawing 123], the IC50 in the data set with P-388, with A-549, in the data set on HT-29, in the data set with MEL-28 and with DU-145 was 100 pM each time.

With `CCC(=O)NC[C@H]1c2c(c(OC(C)=O)c(C)c3c2OCO3)CC2[C@H]3c4c(cc(C)c(OC)c4O)C[C@@H]([C@H](O)N21)N3C` (stereo partly shown) [drawing 125], the IC50 in the data set on P-388, in the data set on A-549, with HT-29, with MEL-28 and in the data set with DU-145 was 100 pM each time.

Consider `COc1c(C)cc2c(c1O)[C@@H]1C3Cc4c(OC(C)=O)c(C)c5c(c4[C@H](CNC(=O)[C@H](C)NC(=O)CCc4ccccc4)N3[C@@H](O)[C@H](C2)N1C)OCO5` (stereo partly shown) [drawing 135], for which the IC50 with P-388, in the data set on A-549, in the data set with HT-29, with MEL-28 and with DU-145 was 100 pM in each case.

On to `CCC(=O)N[C@@H](C)C(=O)NC[C@H]1c2c(c(OC(C)=O)c(C)c3c2OCO3)CC2[C@H]3c4c(cc(C)c(OC)c4O)C[C@@H]([C@H](O)N21)N3C` (stereo partly shown) [drawing 138], for which the IC50 in the data set on P-388, in the data set with A-549, in the data set on HT-29, in the data set with MEL-28 and with DU-145 was 100 pM each time.

On to `CCCC(=O)OC[C@H]1c2c(c(OC(C)=O)c(C)c3c2OCO3)CC2[C@H]3c4c(cc(C)c(OC)c4OCOC)C[C@@H]([C@H](C#N)N21)N3C` (stereo partly shown) [drawing 152], for which the IC50 came out at 100 pM with P-388; 800 pM in the data set with A-549 (human); 800 pM in the data set with HT-29 (human); 800 pM with MEL-28 (human); 800 pM with DU-145 (human).
